Measured values reported in ChEMBL document CHEMBL1201862, “PubChem BioAssay data set” (2004).
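In this assay, cells in 96-well plates receive the compound at five concentrations for 48 hours. Endpoints are linearly interpolated between the surrounding concentrations. Abbreviation: GI50, concentration required for 50% inhibition of growth.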 The source made the active and inactive calls. No stated cut-off is given here; in the data, active = GI50 up to about 1.1 µM and inactive = higher.

Legend:
Experiment in all cases: inhibition of tumour cell growth, NCI panel, 48 h
[1] = tested on: 786-0
[2] = tested on: A498
[3] = tested on: ACHN
[4] = tested on: CCRF-CEM
[5] = tested on: COLO 205
[6] = tested on: DMS-114
[7] = tested on: HCT-116
[8] = tested on: HOP-62
[9] = tested on: HOP-92
[10] = tested on: HT-29
[11] = tested on: IGROV-1
[12] = tested on: K562
[13] = tested on: KM-20L2
[14] = tested on: KM12
[15] = tested on: LXFL 529
[16] = tested on: M14
[17] = tested on: M19-MEL
[18] = tested on: MOLT-4
[19] = tested on: Malme-3M
[20] = tested on: NCI-H23
[21] = tested on: NCI-H460
[22] = tested on: NCI-H522
[23] = tested on: OVCAR-3
[24] = tested on: OVCAR-4
[25] = tested on: OVCAR-5
[26] = tested on: RPMI-8226
[27] = tested on: RXF 393
[28] = tested on: SF-268
[29] = tested on: SF-295
[30] = tested on: SK-MEL-28
[31] = tested on: SK-MEL-2
[32] = tested on: SK-OV-3
[33] = tested on: SNB-19
[34] = tested on: SNB-75
[35] = tested on: SNB-78
[36] = tested on: SR
[37] = tested on: U-251
[38] = tested on: UACC-257
[39] = tested on: UACC-62
[40] = tested on: UO-31
[41] = tested on: A549
[42] = tested on: CAKI-1
[43] = tested on: DMS-273
[44] = tested on: EKVX
[45] = tested on: HCT-15
[46] = tested on: HL-60
[47] = tested on: LOX IMVI
[48] = tested on: NCI-H226
[49] = tested on: OVCAR-8
[50] = tested on: SF-539
[51] = tested on: SK-MEL-5
[52] = tested on: SN12C
[53] = tested on: SW-620
[54] = tested on: TK-10
[55] = tested on: DLD-1
[56] = tested on: HCC 2998
[57] = tested on: HOP-18
[58] = tested on: BT-549
[59] = tested on: DU-145
[60] = tested on: Hs-578T
[61] = tested on: MCF7
[62] = tested on: MDA-MB-231
[63] = tested on: MDA-MB-435
[64] = tested on: MDA-N
[65] = tested on: NCI/ADR-RES
[66] = tested on: PC-3
[67] = tested on: T47D

With COc1ccc2c(c1)CC[C@@H]1C2CC[C@]2(C)C(=O)N(N)C(=O)CC12 (stereo partly specified) the GI50 [1] was > 100 µM (inactive), the GI50 [2] was 35.8 µM (inactive) and the GI50 [3] was > 100 µM (inactive). For the same compound, the GI50 [4] was 80 µM (inactive), the GI50 [5] was > 100 µM (inactive) and the GI50 [6] was 44.5 µM (inactive). The GI50 [7] was > 100 µM (inactive), the GI50 [8] was > 100 µM (inactive) and the GI50 [9] was > 100 µM (inactive). The GI50 [10] was > 100 µM (inactive), the GI50 [11] was > 100 µM (inactive) and the GI50 [12] was 32.6 µM (inactive). The GI50 [13] was 32.9 µM (inactive), the GI50 [14] was > 100 µM (inactive) and the GI50 [15] was 52.6 µM (inactive). For the same compound, the GI50 [16] was 78.3 µM (inactive), the GI50 [17] was > 100 µM (inactive) and the GI50 [18] was 44.4 µM (inactive). For the same compound, the GI50 [19] was > 100 µM (inactive), the GI50 [20] was > 100 µM (inactive) and the GI50 [21] was 37.2 µM (inactive). For the same compound, the GI50 [22] was 48.8 µM (inactive), the GI50 [23] was > 100 µM (inactive) and the GI50 [24] was > 100 µM (inactive). For the same compound, the GI50 [25] was > 100 µM (inactive), the GI50 [26] was 28.8 µM (inactive) and the GI50 [27] was > 10 µM (inactive). The GI50 [28] was > 100 µM (inactive), the GI50 [29] was > 100 µM (inactive) and the GI50 [30] was > 100 µM (inactive). The GI50 [31] was > 100 µM (inactive), the GI50 [32] was > 100 µM (inactive) and the GI50 [33] was > 100 µM (inactive). For the same compound, the GI50 [34] was > 100 µM (inactive), the GI50 [35] was 77.4 µM (inactive) and the GI50 [36] was 38 µM (inactive). For the same compound, the GI50 [37] was > 100 µM (inactive), the GI50 [38] was 35.6 µM (inactive) and the GI50 [39] was 80.9 µM (inactive). For the same compound, the GI50 [40] was 72.9 µM (inactive).

With O=C1N[C@@H]2CCC[C@@H]2[C@@H]1c1ccc(Cl)cc1 the GI50 [41] was > 100 µM (inactive), the GI50 [42] was > 100 µM (inactive) and the GI50 [4] was > 100 µM (inactive). The GI50 [5] was > 100 µM (inactive), the GI50 [6] was 70 µM (inactive) and the GI50 [43] was > 100 µM (inactive). The GI50 [44] was > 100 µM (inactive), the GI50 [45] was greater than 100 µM and the GI50 [46] was > 100 µM (inactive). The GI50 [10] was > 100 µM (inactive), the GI50 [11] was > 100 µM (inactive) and the GI50 [12] was > 100 µM (inactive). The GI50 [14] was > 100 µM (inactive), the GI50 [47] was > 100 µM (inactive) and the GI50 [16] was > 100 µM (inactive). The GI50 [17] was > 100 µM (inactive), the GI50 [18] was > 100 µM (inactive) and the GI50 [48] was 87.9 µM (inactive). For the same compound, the GI50 [20] was > 100 µM (inactive), the GI50 [22] was > 100 µM (inactive) and the GI50 [23] was > 100 µM (inactive). The GI50 [49] was > 100 µM (inactive), the GI50 [26] was > 100 µM (inactive) and the GI50 [27] was > 100 µM (inactive). The GI50 [28] was > 100 µM (inactive), the GI50 [29] was > 100 µM (inactive) and the GI50 [50] was > 100 µM (inactive). The GI50 [30] was > 100 µM (inactive), the GI50 [51] was > 100 µM (inactive) and the GI50 [32] was > 100 µM (inactive). For the same compound, the GI50 [52] was > 100 µM (inactive), the GI50 [33] was > 100 µM (inactive) and the GI50 [34] was > 100 µM (inactive). For the same compound, the GI50 [53] was > 100 µM (inactive), the GI50 [54] was > 100 µM (inactive) and the GI50 [38] was > 100 µM (inactive). For the same compound, the GI50 [39] was > 100 µM (inactive) and the GI50 [40] was 65.2 µM (inactive).

In the case of CC(CCC(=O)O)c1ccc(Br)cc1 (stereo unspecified), the GI50 [1] is reported as > 100 µM (inactive), the GI50 [41] is reported as > 100 µM (inactive) and the GI50 [3] is reported as > 100 µM (inactive). The GI50 [42] was > 100 µM (inactive), the GI50 [4] was > 100 µM (inactive) and the GI50 [5] was > 100 µM (inactive). For the same compound, the GI50 [55] was > 100 µM (inactive), the GI50 [6] was > 100 µM (inactive) and the GI50 [43] was > 100 µM (inactive). For the same compound, the GI50 [44] was > 100 µM (inactive), the GI50 [56] was > 100 µM (inactive) and the GI50 [7] was > 100 µM (inactive). For the same compound, the GI50 [45] was greater than 100 µM, the GI50 [46] was > 100 µM (inactive) and the GI50 [57] was > 100 µM (inactive). For the same compound, the GI50 [8] was > 100 µM (inactive), the GI50 [10] was > 100 µM (inactive) and the GI50 [11] was > 100 µM (inactive). The GI50 [12] was > 100 µM (inactive), the GI50 [13] was > 100 µM (inactive) and the GI50 [14] was > 100 µM (inactive). The GI50 [47] was > 100 µM (inactive), the GI50 [15] was > 100 µM (inactive) and the GI50 [16] was > 100 µM (inactive). The GI50 [17] was > 100 µM (inactive), the GI50 [18] was > 100 µM (inactive) and the GI50 [19] was > 100 µM (inactive). For the same compound, the GI50 [48] was > 100 µM (inactive), the GI50 [20] was > 100 µM (inactive) and the GI50 [21] was > 100 µM (inactive). For the same compound, the GI50 [22] was > 100 µM (inactive), the GI50 [23] was > 100 µM (inactive) and the GI50 [24] was > 100 µM (inactive). The GI50 [25] was > 100 µM (inactive), the GI50 [49] was > 100 µM (inactive) and the GI50 [26] was > 100 µM (inactive). For the same compound, the GI50 [27] was > 100 µM (inactive), the GI50 [28] was > 100 µM (inactive) and the GI50 [29] was > 100 µM (inactive). The GI50 [30] was > 100 µM (inactive), the GI50 [31] was > 100 µM (inactive) and the GI50 [51] was > 100 µM (inactive). The GI50 [32] was > 100 µM (inactive), the GI50 [52] was > 100 µM (inactive) and the GI50 [33] was > 100 µM (inactive). The GI50 [34] was > 100 µM (inactive), the GI50 [35] was > 100 µM (inactive) and the GI50 [36] was > 100 µM (inactive). The GI50 [53] was > 100 µM (inactive), the GI50 [54] was > 100 µM (inactive) and the GI50 [37] was > 100 µM (inactive). For the same compound, the GI50 [38] was > 100 µM (inactive), the GI50 [39] was > 100 µM (inactive) and the GI50 [40] was > 100 µM (inactive).

In the case of O=C1NC(=S)N(c2cccc3ccccc23)C(=O)/C1=C/c1c[nH]c2ccccc12, the GI50 [1] is reported as 1.71 µM (inactive), the GI50 [2] is reported as 2.05 µM (inactive) and the GI50 [41] is reported as 5.12 µM (inactive). The GI50 [3] was 2.37 µM (inactive), the GI50 [58] was 1.79 µM (inactive) and the GI50 [42] was 2.54 µM (inactive). For the same compound, the GI50 [4] was 1.76 µM (inactive), the GI50 [5] was 1.84 µM (inactive) and the GI50 [59] was 1.8 µM (inactive). The GI50 [44] was 2.06 µM (inactive), the GI50 [56] was 1.87 µM (inactive) and the GI50 [7] was 2.01 µM (inactive). For the same compound, the GI50 [45] was 1.67 µM, the GI50 [46] was 2.21 µM (inactive) and the GI50 [8] was 2.83 µM (inactive). For the same compound, the GI50 [9] was 2.13 µM (inactive), the GI50 [10] was 2.17 µM (inactive) and the GI50 [60] was 3.52 µM (inactive). The GI50 [11] was 2.03 µM (inactive), the GI50 [12] was 2.38 µM (inactive) and the GI50 [14] was 2.32 µM (inactive). For the same compound, the GI50 [47] was 1.82 µM (inactive), the GI50 [16] was 1.84 µM (inactive) and the GI50 [61] was 2.54 µM (inactive). The GI50 [62] was 2.16 µM (inactive), the GI50 [63] was 2.34 µM (inactive) and the GI50 [64] was 2.1 µM (inactive). The GI50 [18] was 1.87 µM (inactive), the GI50 [19] was 2.23 µM (inactive) and the GI50 [48] was 2.42 µM (inactive). For the same compound, the GI50 [20] was 1.81 µM (inactive), the GI50 [21] was 2.36 µM (inactive) and the GI50 [22] was 2.78 µM (inactive). For the same compound, the GI50 [65] was 3 µM (inactive), the GI50 [23] was 3.38 µM (inactive) and the GI50 [24] was 2.44 µM (inactive). For the same compound, the GI50 [25] was 2.4 µM (inactive), the GI50 [49] was 2.39 µM (inactive) and the GI50 [66] was 2.36 µM (inactive). The GI50 [26] was 2.02 µM (inactive), the GI50 [27] was 1.91 µM (inactive) and the GI50 [28] was 2.64 µM (inactive). For the same compound, the GI50 [29] was 3.07 µM (inactive), the GI50 [50] was 2.23 µM (inactive) and the GI50 [30] was 2.26 µM (inactive). For the same compound, the GI50 [31] was 1.69 µM (inactive), the GI50 [51] was 1.66 µM (inactive) and the GI50 [32] was 4.02 µM (inactive). The GI50 [52] was 2.02 µM (inactive), the GI50 [33] was 3.08 µM (inactive) and the GI50 [34] was 2.43 µM (inactive). For the same compound, the GI50 [36] was 1.41 µM (inactive), the GI50 [53] was 2.25 µM (inactive) and the GI50 [67] was 3.89 µM (inactive). For the same compound, the GI50 [54] was 2.67 µM (inactive), the GI50 [37] was 2.22 µM (inactive) and the GI50 [38] was 2.31 µM (inactive). The GI50 [39] was 1.7 µM (inactive) and the GI50 [40] was 2.15 µM (inactive).
